Three molecules from ChEMBL document CHEMBL1129456, “Synthesis and evaluation of two positron-labeled nitric oxide synthase inhibitors, S-[11C]methylisothiourea and S-(2-[18F]fluoroethyl)isothiourea, as potential positron emission tomography tracers” (J Med Chem, 1996) can be followed below.

In one series the target is T1, Nitric oxide synthase 3 (Homo sapiens, UniProt P29474).
T1 sequence (P29474 whole entry): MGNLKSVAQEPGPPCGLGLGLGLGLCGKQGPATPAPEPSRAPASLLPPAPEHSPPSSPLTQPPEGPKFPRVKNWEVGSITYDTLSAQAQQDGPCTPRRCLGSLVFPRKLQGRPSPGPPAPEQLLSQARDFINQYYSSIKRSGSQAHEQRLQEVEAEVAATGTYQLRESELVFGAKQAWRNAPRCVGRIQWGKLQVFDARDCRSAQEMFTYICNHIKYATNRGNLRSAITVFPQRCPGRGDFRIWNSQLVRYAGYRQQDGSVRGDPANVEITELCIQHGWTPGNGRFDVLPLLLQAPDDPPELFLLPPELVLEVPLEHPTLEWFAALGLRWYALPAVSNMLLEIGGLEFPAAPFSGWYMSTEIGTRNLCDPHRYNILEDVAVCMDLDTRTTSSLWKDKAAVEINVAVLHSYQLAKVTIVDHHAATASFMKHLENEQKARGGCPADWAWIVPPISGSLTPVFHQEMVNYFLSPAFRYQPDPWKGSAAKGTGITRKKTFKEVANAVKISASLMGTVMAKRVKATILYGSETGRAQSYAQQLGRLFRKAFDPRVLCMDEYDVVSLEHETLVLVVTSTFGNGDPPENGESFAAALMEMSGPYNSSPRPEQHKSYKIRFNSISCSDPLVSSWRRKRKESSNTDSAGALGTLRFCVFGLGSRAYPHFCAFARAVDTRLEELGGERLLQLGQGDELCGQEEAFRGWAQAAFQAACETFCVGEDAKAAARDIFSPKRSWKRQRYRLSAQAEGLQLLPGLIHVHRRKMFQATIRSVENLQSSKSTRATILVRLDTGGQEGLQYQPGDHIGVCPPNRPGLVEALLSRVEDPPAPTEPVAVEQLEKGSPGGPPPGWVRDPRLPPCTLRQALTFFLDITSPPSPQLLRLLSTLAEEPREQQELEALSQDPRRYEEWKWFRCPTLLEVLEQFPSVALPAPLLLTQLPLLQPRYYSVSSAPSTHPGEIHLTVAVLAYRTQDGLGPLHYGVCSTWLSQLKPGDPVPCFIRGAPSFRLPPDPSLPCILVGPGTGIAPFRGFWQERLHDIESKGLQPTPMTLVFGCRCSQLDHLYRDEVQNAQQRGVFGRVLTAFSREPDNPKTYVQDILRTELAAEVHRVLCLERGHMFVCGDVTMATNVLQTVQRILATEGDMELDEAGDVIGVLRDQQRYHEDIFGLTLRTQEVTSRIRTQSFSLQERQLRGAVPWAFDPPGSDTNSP
As to the kind of experiment: The compound was evaluated for the inhibitory potencies using human Endothelial nitric oxide synthase.

The next series is filed under the species Rattus norvegicus. As to the kind of experiment: Maximum enzyme concentration from lipopolysaccharide treated rat liver. The format is functional.
Series [1] deals with T2, Nitric oxide synthase, inducible (Mus musculus, UniProt P29477).
T2 sequence (P29477 whole entry): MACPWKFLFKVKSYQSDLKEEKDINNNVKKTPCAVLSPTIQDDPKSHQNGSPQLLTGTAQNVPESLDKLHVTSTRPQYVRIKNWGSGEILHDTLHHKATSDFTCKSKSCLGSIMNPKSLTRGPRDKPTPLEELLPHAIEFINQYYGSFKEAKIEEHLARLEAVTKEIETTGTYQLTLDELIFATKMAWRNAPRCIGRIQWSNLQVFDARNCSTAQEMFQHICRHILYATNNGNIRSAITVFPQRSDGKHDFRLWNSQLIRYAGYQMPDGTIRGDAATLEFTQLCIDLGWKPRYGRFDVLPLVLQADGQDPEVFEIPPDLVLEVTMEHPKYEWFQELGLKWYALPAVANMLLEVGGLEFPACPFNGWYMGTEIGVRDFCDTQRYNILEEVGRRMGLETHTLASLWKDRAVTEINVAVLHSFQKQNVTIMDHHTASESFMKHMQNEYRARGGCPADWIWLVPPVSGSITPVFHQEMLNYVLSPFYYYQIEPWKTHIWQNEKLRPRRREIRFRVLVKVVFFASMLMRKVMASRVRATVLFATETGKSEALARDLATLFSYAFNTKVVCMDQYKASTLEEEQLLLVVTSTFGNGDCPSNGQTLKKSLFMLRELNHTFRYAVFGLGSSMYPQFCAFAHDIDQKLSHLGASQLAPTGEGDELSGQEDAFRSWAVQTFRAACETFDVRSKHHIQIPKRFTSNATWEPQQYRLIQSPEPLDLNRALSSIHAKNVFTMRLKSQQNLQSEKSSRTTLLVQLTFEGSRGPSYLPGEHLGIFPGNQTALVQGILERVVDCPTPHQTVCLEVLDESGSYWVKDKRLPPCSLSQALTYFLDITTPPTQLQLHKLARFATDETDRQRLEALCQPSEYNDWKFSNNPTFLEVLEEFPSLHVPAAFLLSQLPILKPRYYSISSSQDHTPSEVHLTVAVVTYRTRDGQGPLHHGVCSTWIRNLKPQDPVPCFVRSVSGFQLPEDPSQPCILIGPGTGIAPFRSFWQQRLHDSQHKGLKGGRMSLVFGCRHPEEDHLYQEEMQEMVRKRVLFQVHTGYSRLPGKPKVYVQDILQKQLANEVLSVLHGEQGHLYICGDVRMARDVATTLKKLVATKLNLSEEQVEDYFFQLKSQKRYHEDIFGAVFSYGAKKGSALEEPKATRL
Description: Binding affinity against mouse Inducible nitric oxide synthase (iNOS).

In series [2] the target is Nitric oxide synthase, inducible (Homo sapiens, UniProt P35228). Description: The compound was evaluated for the inhibitory potencies using human Inducible nitric oxide synthase (hiNOS).
Sequence of Nitric oxide synthase, inducible (Homo sapiens, UniProt P35228) (P35228 whole entry): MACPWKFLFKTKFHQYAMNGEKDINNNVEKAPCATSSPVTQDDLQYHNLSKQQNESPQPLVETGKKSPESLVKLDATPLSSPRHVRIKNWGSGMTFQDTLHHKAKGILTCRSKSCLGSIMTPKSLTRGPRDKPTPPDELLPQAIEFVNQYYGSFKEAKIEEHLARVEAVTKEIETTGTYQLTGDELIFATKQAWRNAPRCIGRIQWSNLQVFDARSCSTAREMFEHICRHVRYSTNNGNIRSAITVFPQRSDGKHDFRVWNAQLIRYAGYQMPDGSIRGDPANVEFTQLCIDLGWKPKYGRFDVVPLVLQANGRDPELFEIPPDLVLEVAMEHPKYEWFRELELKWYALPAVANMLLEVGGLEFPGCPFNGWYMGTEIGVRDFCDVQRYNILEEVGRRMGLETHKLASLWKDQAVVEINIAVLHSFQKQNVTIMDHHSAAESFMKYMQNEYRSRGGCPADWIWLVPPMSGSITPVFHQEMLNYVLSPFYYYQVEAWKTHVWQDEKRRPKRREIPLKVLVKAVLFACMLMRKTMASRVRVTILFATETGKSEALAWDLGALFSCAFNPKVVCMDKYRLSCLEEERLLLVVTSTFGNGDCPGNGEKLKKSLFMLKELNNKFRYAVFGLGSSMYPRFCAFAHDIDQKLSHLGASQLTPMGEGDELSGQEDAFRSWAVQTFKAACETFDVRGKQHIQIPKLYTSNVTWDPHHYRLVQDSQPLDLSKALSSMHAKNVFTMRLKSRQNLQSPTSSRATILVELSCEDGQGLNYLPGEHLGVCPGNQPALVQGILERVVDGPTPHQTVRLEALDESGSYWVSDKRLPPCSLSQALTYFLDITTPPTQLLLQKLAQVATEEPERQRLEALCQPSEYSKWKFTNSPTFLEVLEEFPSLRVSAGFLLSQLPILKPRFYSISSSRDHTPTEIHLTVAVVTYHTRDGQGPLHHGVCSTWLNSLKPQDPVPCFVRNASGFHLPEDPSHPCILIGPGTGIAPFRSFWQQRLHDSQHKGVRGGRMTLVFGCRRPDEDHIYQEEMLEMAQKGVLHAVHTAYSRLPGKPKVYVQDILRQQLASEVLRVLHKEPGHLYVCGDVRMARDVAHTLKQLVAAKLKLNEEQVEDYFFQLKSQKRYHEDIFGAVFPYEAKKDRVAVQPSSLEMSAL
The nature of series [3]: Partition coefficient measured by octanol/water extraction at pH 6.8. In kind it is physicochemical.

Broadly, the IC50 is the midpoint of a concentration-inhibition curve. A high value points to a need for much substance. The term Ki denotes a dissociation constant, usually derived from enzyme kinetics or from competition with a known ligand. Turning to `CCSC(=N)N` [ETHYLISOTHIOUREA], the concentration for half-maximal inhibition (IC50) against Nitric oxide synthase 3 was determined as 1300 nM; in series [2] it was 160 nM. Moreover, in the series listed under Rattus norvegicus, the Bmax amounted to 85 nM. The molecule also showed a Ki in series [1] of 5.2 nM.
With `[11CH3]SC(=N)N`, the logD in series [3] was -0.04.
Consider `CSC(=N)N`, for which the concentration for half-maximal inhibition (IC50) against Nitric oxide synthase 3 worked out at 7000 nM; in series [2], 3000 nM.
